Key:
[1] = tested on: H1 (parent) callus; assay: Callus growth test with chlorsulfuron and structural analogues; type: cell-based, Nicotiana tabacum; conditions: 10 ppb compound, 2 weeks in the dark
Experimental: (§1) In these growth tests, petri dishes containing C1 agar medium and 10 ppb of the sulfonamide herbicide chlorsulfuron and Compounds A through E were prepared. A sterile filter paper disc was placed in the center of each plate, and inoculated with 250 mg of callus tissue homozygous for the S4 mutation, or callus tissue derived from the haploid parent H1. The resulting cultures were incubated at 25° in the dark for 2 weeks. At the conclusion of the incubation period, filter discs containing callus cells were removed from culture dishes, placed on a Buchner funnel, and gentle suction applied to remove excess water. The resulting callus mass was then carefully scraped from the filter disc and weighed. Four replicates were included in each experiment.

[2] = tested on: S4/S4 callus; assay: as above; type: cell-based, Nicotiana tabacum; conditions: 10 ppb compound, 2 weeks in the dark
Experimental: as §1

[3] = tested on: control plants; conditions: paraquat 10^-5 M; cited from earlier work
[4] = tested on: "resistant" regenerated plants; conditions: paraquat 10^-5 M; cited from earlier work
[5] = tested on: picloram-tolerant tobacco mutants; conditions: cited from earlier work

Row | Compound | Mean Fresh Weight [1] [g] | Mean Fresh Weight [2] [g] | also measured
1 | Cc1cc(C)nc(NC(=O)NS(=O)(=O)c2ccccc2Cl)n1 [A] | 0 | 5.16 | –
2 | COc1cc(C)nc(NC(=O)NS(=O)(=O)c2ccccc2Cl)n1 [B] | 0 | 5.60 | –
3 | COc1cc(OC)nc(NC(=O)NS(=O)(=O)c2ccccc2Cl)n1 [C] | 0 | 5.08 | –
4 | Cc1nc(C)nc(NC(=O)NS(=O)(=O)c2ccccc2Cl)n1 [D] | 0 | 4.53 | –
5 | COc1nc(NC(=O)NS(=O)(=O)c2ccccc2Cl)nc(OC)n1 [E] | 0 | 4.97 | –
6 | C[n+]1ccc(-c2cc[n+](C)cc2)cc1 [paraquat] | – | – | time for leaves to bleach to white (average) [3]: 3.5 days; time for leaves to bleach to white [4]: 4 to 7 days
7 | Nc1c(Cl)c(Cl)nc(C(=O)O)c1Cl [picloram, 4-amino-3,5,6-trichloropicolinic acid] | – | – | seed germination ([5]; 100 μM picloram, seeds of tolerant mutants): germinated; plantlet development ([5]; one month's exposure to 50 μM picloram, plantlets homozygous for tolerance mutations): developed stem callus tissue and degenerated
